# Data taken from patent publication US7635572B2, “Methods for conducting assays for enzyme activity on protein microarrays” (Life Technologies Corporation, priority 2004, dated 2009).
# Key:
# Test in all cases: Further analysis of a plurality of inhibitors and a plurality of kinases on microarray (Example IX, Table 5);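 also: inhibition of each kinase by the inhibitors is given as a qualitative level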;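 as to Inhibition level, Homo sapiens in: level 0 none or unclear Level 1 marginal Level 2 substantial inhibition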;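 as to Inhibition level, Homo sapiens, o: level 0 none or unclear Level 1 marginal Level 2 substantial inhibition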;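 as to Inhibition level, MAP2K4: level 0 none or unclear Level 1 marginal Level 2 substantial inhibition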;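 as to Inhibition level, TLK2: level 0 none or unclear Level 1 marginal Level 2 substantial inhibition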
# Type in all cases: biochemical
# [1] = molecular target: T1, plurality of kinases (Table 5) (Homo sapiens, UniProt P45985); details: plate E6; inhibitor 100 uM
# T1 sequence (P45985 1-399): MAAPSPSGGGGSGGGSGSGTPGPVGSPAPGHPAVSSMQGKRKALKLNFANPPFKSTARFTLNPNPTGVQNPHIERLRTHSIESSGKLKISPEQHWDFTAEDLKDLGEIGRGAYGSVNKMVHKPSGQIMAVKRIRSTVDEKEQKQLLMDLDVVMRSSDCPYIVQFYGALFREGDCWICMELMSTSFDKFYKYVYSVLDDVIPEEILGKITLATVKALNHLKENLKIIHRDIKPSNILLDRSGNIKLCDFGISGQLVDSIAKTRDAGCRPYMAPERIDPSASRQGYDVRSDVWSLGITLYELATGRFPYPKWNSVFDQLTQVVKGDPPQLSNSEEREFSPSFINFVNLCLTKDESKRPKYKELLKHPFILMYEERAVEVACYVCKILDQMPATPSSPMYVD
# [2] = test system: plurality of kinases (Table 5); details: inhibitor 100 uM
# [3] = molecular target: plurality of kinases (Table 5) (Homo sapiens, UniProt Q86UE8); details: plate C8; inhibitor 100 uM
# [4] = molecular target: plurality of kinases (Table 5) (Homo sapiens, UniProt P24723); details: plate B3; inhibitor 100 uM
# [5] = molecular target: plurality of kinases (Table 5) (Homo sapiens, UniProt P07949); details: plate B7; inhibitor 100 uM
# [6] = molecular target: T2, plurality of kinases (Table 5) (Homo sapiens, UniProt Q92630); details: plate D11; inhibitor 100 uM
# T2 sequence (Q92630 1-601): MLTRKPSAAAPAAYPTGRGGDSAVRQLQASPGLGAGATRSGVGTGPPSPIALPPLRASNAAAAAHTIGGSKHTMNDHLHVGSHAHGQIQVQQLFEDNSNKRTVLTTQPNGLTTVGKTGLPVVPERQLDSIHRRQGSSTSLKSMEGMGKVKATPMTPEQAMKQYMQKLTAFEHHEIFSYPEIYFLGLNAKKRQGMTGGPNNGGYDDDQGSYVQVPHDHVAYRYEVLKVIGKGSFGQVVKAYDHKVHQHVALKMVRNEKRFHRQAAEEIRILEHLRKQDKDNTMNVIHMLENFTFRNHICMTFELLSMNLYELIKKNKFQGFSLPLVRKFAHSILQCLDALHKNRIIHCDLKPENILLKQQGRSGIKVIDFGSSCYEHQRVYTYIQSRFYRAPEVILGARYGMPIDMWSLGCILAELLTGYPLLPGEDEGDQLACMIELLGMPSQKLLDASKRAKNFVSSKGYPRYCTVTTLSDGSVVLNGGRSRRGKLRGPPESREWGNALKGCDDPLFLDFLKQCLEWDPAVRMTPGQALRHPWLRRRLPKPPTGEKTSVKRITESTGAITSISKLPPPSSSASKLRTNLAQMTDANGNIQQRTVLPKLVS
# [7] = molecular target: T3, plurality of kinases (Table 5) (Homo sapiens, UniProt P41743); details: plate A2; inhibitor 100 uM
# T3 sequence (P41743 1-596): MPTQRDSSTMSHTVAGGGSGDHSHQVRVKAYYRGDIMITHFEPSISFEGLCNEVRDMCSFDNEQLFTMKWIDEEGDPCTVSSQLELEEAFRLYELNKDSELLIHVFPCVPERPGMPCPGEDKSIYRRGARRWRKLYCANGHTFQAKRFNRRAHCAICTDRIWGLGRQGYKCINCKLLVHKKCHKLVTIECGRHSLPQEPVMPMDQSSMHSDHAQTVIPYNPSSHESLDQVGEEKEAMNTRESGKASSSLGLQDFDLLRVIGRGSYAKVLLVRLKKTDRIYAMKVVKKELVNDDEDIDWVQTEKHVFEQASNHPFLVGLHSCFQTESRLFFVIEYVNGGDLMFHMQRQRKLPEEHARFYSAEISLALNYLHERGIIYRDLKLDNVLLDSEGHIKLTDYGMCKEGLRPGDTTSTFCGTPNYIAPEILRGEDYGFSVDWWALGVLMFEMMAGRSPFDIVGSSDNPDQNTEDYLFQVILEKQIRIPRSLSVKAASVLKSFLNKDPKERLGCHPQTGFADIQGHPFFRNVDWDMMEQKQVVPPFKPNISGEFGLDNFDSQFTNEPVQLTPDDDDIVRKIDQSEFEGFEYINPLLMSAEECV
# [8] = molecular target: plurality of kinases (Table 5) (Homo sapiens, UniProt Q13627); details: plate G6; inhibitor 100 uM
# Chain of plurality of kinases (Table 5) (Homo sapiens, UniProt P24723) (P24723 whole entry): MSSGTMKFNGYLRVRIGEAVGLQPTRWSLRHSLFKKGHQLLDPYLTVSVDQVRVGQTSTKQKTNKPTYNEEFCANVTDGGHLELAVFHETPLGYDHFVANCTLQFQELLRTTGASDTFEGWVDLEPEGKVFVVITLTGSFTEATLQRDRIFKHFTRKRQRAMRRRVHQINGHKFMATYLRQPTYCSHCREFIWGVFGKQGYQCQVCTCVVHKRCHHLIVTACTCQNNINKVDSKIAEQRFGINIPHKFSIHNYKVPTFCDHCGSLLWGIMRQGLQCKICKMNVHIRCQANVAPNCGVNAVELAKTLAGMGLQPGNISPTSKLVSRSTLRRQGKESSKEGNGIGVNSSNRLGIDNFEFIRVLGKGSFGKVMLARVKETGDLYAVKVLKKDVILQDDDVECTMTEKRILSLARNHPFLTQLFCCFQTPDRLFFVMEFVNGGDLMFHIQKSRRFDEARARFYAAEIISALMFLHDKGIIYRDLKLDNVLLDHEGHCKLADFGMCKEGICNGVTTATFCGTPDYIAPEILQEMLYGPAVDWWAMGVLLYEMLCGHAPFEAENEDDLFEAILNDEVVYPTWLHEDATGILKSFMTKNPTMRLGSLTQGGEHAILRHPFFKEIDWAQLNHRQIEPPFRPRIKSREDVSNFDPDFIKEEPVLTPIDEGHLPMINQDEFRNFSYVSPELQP
# Chain of plurality of kinases (Table 5) (Homo sapiens, UniProt Q86UE8) (Q86UE8 whole entry): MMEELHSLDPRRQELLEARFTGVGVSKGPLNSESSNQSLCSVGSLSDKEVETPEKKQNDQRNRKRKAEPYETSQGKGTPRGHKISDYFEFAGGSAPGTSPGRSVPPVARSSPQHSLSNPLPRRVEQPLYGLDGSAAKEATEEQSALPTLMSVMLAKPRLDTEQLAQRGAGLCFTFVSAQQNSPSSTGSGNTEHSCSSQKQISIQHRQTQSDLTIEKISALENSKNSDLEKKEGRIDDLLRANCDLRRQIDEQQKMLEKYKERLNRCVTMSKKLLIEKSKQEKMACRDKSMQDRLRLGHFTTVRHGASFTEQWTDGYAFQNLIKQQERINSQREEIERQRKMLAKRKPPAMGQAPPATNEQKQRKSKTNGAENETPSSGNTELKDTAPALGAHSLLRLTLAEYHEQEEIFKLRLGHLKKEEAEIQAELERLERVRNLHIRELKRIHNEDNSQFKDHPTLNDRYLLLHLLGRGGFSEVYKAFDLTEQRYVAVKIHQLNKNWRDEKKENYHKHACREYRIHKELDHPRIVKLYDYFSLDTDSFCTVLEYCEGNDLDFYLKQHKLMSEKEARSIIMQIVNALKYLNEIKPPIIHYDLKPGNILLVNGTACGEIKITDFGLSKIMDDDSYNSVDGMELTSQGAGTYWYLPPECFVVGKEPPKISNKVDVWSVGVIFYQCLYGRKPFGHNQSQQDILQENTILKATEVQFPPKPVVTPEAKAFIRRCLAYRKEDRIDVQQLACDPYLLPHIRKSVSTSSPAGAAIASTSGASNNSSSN
# Chain of plurality of kinases (Table 5) (Homo sapiens, UniProt P07949) (P07949 29-1114): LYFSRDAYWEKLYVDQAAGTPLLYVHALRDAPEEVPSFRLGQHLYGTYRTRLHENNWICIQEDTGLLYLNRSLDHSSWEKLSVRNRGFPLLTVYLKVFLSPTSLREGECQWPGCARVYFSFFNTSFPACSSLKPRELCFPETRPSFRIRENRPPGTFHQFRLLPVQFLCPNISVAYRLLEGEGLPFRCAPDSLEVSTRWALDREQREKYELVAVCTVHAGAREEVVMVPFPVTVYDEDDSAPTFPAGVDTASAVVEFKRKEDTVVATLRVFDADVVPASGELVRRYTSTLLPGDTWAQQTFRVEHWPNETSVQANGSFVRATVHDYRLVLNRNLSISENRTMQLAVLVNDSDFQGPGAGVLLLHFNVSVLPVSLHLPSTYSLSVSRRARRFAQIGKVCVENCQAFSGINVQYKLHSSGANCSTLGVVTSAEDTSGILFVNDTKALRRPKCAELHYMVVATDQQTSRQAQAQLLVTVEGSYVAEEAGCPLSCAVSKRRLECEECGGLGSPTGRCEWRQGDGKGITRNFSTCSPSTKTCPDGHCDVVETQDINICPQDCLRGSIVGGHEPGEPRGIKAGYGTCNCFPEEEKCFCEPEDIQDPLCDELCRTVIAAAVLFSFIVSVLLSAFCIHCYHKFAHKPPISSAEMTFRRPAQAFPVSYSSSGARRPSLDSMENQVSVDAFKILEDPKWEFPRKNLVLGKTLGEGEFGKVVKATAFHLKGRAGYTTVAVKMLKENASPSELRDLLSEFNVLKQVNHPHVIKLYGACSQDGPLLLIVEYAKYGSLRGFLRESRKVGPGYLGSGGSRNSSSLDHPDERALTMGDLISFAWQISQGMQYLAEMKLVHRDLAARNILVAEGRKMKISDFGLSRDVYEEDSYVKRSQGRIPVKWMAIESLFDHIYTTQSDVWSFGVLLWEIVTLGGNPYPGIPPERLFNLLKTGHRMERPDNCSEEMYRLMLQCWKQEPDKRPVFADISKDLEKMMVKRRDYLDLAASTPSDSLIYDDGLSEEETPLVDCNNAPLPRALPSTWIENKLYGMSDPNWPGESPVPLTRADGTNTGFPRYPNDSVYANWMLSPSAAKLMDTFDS
structure (smiles),measurement,setting,value
CC(=O)c1c(O)c(C)c(O)c(Cc2c(O)c3c(c(C(=O)/C=C/c4ccccc4)c2O)OC(C)(C)C=C3)c1O [Rottlerin (Mallotoxin)],"Inhibition level, MAP2K4",[1],1
same,"Inhibition level, Homo sapiens, S",[2]; plate E9,2
same,"Inhibition level, Homo sapiens, s",[2]; plate E11,2
same,"Inhibition level, Homo sapiens, s",[2]; plate F3,0
same,"Inhibition level, Homo sapiens c",[2]; plate F4,0
same,"Inhibition level, Homo sapiens, o",[2]; plate F5,0
same,"Inhibition level, Homo sapiens, S",[2]; plate F6,0
same,"Inhibition level, Homo sapiens, B",[2]; plate F7,2
same,"Inhibition level, Homo sapiens, s",[2]; plate F8,0
same,"Inhibition level, Homo sapiens in",[2]; plate F9,0
same,"Inhibition level, Homo sapiens p",[2]; plate F10,2
same,"Inhibition level, TLK2",[3],2
same,"Inhibition level, PRKCH",[4],2
same,"Inhibition level, RET",[5],0
same,"Inhibition level, DYRK2",[6],2
same,"Inhibition level, PRKCI",[7],2
same,"Inhibition level, DYRK1A",[8],0
